The results in this text go back to the supplement of paper PMC10307832.

Common to all, as to test: relative viability (nuclei count vs DMSO), 5 days (fraction); higher = more cells survive
Compound in the test “Serdemetan + Bortezomib”: c1ccc2c(CCNc3ccc(Nc4ccncc4)cc3)c[nH]c2c1 [Serdemetan] + CC(C)C[C@H](NC(=O)[C@H](Cc1ccccc1)NC(=O)c1cnccn1)B(O)O [Bortezomib] (partner 0.002 µM)
The method, boiled down: (§1)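 Lung cancer cell lines were pin-tool dosed in 1536-well plates on the day after seeding, with either a lone drug or a fixed anchor-drug dose plus five library-drug doses (not always all listed) in √10 steps. Nuclei were counted on 4× images after 5 days. Relative viability is the ratio of treated-well to vehicle-well nuclei counts, with each value a median of duplicate plates.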

Compound in the test “Serdemetan + Olaparib”: c1ccc2c(CCNc3ccc(Nc4ccncc4)cc3)c[nH]c2c1 [Serdemetan] + O=C(c1cc(Cc2n[nH]c(=O)c3ccccc23)ccc1F)N1CCN(C(=O)C2CC2)CC1 [Olaparib] (partner 8 µM)
The method, boiled down:
as §1

Compound in the test “Serdemetan + Dasatinib”: c1ccc2c(CCNc3ccc(Nc4ccncc4)cc3)c[nH]c2c1 [Serdemetan] + Cc1nc(Nc2ncc(C(=O)Nc3c(C)cccc3Cl)s2)cc(N2CCN(CCO)CC2)n1 [Dasatinib] (partner 0.075 µM)
The method, boiled down: as §1

Compound in the test “Selisistat + Tozasertib”: C1CC(C2=C(C1)C3=C(N2)C=CC(=C3)Cl)C(=O)N [Selisistat] + Cc1cc(Nc2cc(N3CCN(C)CC3)nc(Sc3ccc(NC(=O)C4CC4)cc3)n2)n[nH]1 [Tozasertib] (partner 0.1 µM)
The method, boiled down:
as §1

As to UMC-11, the relative viability in the test with Serdemetan + Bortezomib (first compound 0.04 µM) turned out to be 0.614; in the test with Serdemetan + Bortezomib (first compound 0.1265 µM), 0.666; with Serdemetan + Bortezomib (first compound 0.4 µM) it was 0.668; with Serdemetan + Bortezomib (first compound 1.265 µM) it was 0.53; with Serdemetan + Bortezomib (first compound 4 µM) it was 0.839; with Serdemetan + Olaparib (first compound 0.04 µM) it was 0.345. For the same cell line, the relative viability in the test with Serdemetan + Olaparib (first compound 0.1265 µM) came to 0.332; in the test with Serdemetan + Olaparib (first compound 0.4 µM), 0.319; with Serdemetan + Olaparib (first compound 1.265 µM), 0.255; with Serdemetan + Olaparib (first compound 4 µM), 0.593; with Serdemetan + Dasatinib (first compound 0.04 µM) it was 0.45; with Serdemetan + Dasatinib (first compound 0.1265 µM) it was 0.437. For the same cell line, the relative viability in the test with Serdemetan + Dasatinib (first compound 4 µM) was 0.351; with Selisistat + Tozasertib (first compound 0.4 µM), 0.212; in the test with Selisistat + Tozasertib (first compound 1.265 µM), 0.21; with Selisistat + Tozasertib (first compound 4 µM), 0.209; with Selisistat + Tozasertib (first compound 12.65 µM), 0.205; with Selisistat + Tozasertib (first compound 40 µM), 0.212.
